For test [1], the target named is Photoreceptor-specific nuclear receptor (Homo sapiens, UniProt Q9Y5X4). The class given is functional.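 Note: potency for compounds that break the NR2E3 corepressor complex and count as activators.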
The target in test [2] is Peroxisome proliferator-activated receptor gamma/Nuclear receptor corepressor 2 (Homo sapiens, UniProt P37231+Q9Y618). The class given is functional.
Test [3] in a line: Luminescence Cell-Based Dose Confirmation HTS to Identify Activators of 5'UTR Stem-Loop Driven Alpha-Synuclein mRNA Translation in H4 Neuroglioblastoma Cells. [Related pubchem assays: 1829 (Project Summary), 1814 (Primary HTS)]. The class given is functional.
Test [4] is described as follows: Luminescence Cell-Based Dose Response HTS to Identify Activators of Luciferase Translation or Activity in H4 […] Cells. [Related pubchem assays: 1829 (Project Summary), 1814 (Primary HTS)]. The class given is functional.
The test system of a further test is H4. The experiment in a line: Luminescence Cell-Based Dose Response HTS to Identify Activators of 5'UTR Stem-Loop Driven Prion Protein mRNA Translation in H4 Neuroglioblastoma Cells. [Related pubchem assays: 1829 (Project Summary), 1814 (Primary HTS)]. It is filed as functional. To be noted: Homo sapiens.
A short description of test [5]: cytotoxicity in HPDE-C7 cells, cell-based, fluorescence, HTS (AID 430). To be noted: Homo sapiens. It is filed as functional.
A short description of test [6]: inhibitors of intracellular T. cruzi replication, confirmation, NIH3T3 host cells, beta-gal luminescence (AID 2044).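 Note: intracellular parasites grown in NIH/3T3 mouse fibroblasts as host cells; luminescent beta-galactosidase reporter signal from transgenic T. cruzi replicating inside host cells; inhibitors lower the luminescence signal.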 The class given is functional, cell-based.
Test [7] is described as follows: cytotoxicity in KRAS-transformed pancreatic duct cells, primary screen, cell-based, fluorescence, HTS (AID 431).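 Note: cell line used: HPDE-C7K.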 It is filed as functional. To be noted: Homo sapiens.
Test [8] can be described thus: cytotoxicity toward NIH3T3 fibroblasts, dose response, counter-screen, cell-based, ATP luminescence, mouse fibroblasts (AID 2010).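 Note: cells exposed to compound for about 90 hours before reading.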 The class given is functional. In general terms: The purpose of a counterscreen is to sort out artefacts and off-target activity.
The target in test [9] is Fructose-bisphosphate aldolase (Mycobacterium tuberculosis, UniProt P9WQA3). The experiment in a line: Fluorescence-based biochemical high throughput dose response assay for inhibitors of the fructose-bisphosphate aldolase (FBA) of M. tuberculosis. It is filed as functional.
A further test relates to HEK293. The experiment in a line: Fluorescence-based counterscreen for potentiators or agonists of NPY-Y2: cell-based high-throughput dose response assay to identify inhibitors of cyclic nucleotide gated ion channel (CNGC) activity. In this assay, the parental HEK293 cell line transfected with a cyclic-nucleotide gated ion channel (CNGC)-based cAMP sensor is used to measure inhibition of isoproterenol-induced CNGC activity by test compound. To be noted: Homo sapiens. It is filed as functional.

In test [10] the test system is Streptococcus sp. 'group A'. The experiment in a line: growth inhibition of control SK(-) GAS strain, dose response, counter-screen for streptokinase expression inhibitor project, luminescence, kanamycin, BacTiterGlo, confirmation (AID 1900). The class given is functional, organism-based.
The target of test [11] is T1, Neuropeptide Y receptor type 2 (Homo sapiens, UniProt P49146).
T1 sequence (P49146 whole entry): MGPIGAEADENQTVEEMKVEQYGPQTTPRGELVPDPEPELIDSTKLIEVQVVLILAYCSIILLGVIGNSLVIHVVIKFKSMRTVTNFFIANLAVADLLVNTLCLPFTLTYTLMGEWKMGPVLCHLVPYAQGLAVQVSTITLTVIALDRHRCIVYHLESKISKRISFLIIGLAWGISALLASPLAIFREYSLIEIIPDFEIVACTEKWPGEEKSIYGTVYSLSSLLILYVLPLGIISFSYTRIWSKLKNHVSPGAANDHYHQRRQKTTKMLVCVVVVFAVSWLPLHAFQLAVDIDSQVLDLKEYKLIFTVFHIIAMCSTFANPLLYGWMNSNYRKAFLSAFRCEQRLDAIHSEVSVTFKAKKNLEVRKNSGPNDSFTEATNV
The test can be described thus: Fluorescence-based cell-based high-throughput dose response assay for agonists of NPY-Y2. [Related pubchem assays: 1703 (Screening assay (CNGC inhibitors).), 1359 (Screening assay (NPY-Y2 potentiators or agonists).), 1304 (Screening assay (NPY-Y1 potentiators or agonists).), 1710 (Screening assay (NPY-Y2 agonists).), 1791 (Summary AID.)]. It is filed as functional.

Another test addresses T2, Streptokinase A (Streptococcus pyogenes serotype M1, UniProt P10520).
T2 sequence (P10520 whole entry): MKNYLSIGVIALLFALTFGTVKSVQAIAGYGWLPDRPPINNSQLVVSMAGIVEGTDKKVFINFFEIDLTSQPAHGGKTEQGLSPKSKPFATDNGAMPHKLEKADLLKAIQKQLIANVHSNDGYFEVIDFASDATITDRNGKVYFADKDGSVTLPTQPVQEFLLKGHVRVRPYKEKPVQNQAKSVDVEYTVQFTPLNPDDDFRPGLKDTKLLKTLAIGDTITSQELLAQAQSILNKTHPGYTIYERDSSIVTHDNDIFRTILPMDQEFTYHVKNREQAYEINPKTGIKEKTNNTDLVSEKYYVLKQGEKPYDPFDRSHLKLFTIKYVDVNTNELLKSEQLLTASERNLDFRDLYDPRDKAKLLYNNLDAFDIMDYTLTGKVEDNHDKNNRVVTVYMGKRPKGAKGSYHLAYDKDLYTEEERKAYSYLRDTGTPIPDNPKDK
The experiment in a line: S. pyogenes streptokinase expression inhibitors, potency, dose response, plasminogen activation absorbance, OD405 (AID 1914).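 Note: secreted streptokinase activity via plasminogen activation per viability signal from cell pellet.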 It is filed as functional, Streptococcus pyogenes M1 GAS.

Test [12] has as its target T3, Neuropeptide Y receptor type 1 (Homo sapiens, UniProt P25929).
T3 sequence (P25929 whole entry): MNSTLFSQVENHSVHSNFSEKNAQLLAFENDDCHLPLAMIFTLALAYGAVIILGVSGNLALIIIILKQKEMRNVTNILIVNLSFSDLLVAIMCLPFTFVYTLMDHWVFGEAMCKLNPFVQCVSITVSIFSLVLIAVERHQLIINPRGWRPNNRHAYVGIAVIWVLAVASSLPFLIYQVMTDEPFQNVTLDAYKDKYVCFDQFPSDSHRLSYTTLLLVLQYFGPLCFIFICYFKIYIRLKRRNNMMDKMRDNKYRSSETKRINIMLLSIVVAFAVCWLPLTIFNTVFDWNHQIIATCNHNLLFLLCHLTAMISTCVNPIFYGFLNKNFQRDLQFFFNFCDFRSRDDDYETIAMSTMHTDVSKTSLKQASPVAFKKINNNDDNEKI
The experiment in a line: Fluorescence-based counterscreen for agonists of NPY-Y2: cell-based high-throughput dose response assay for agonists of NPY-Y1. The class given is functional.

The next test has as its system Streptococcus. The experiment in a line: Group A Streptococcus viability loss, dose response, counter-screen for streptokinase expression inhibitor project, luminescence, BacTiterGlo (AID 1915).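 Note: potency for reduction of bacterial viability or growth.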 It is filed as functional, organism-based.
The next test has as its system INS1. The test can be described thus: beta cell apoptosis inhibitors, cytokine rescue, dose response, luminescence, retest (AID 449756).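 Note: cell death triggered by IL-1 beta plus TNF-alpha plus IFN-gamma mixture; protective hits raise ATP signal compared with cytokine alone wells.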 The class given is functional, cell-based. To be noted: Rattus norvegicus.
For test [13], the target named is Protein-tyrosine kinase 2-beta (Homo sapiens, UniProt Q14289).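 Note: potency of inhibitors of PYK2 kinase phosphorylation of poly-GT substrate.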
The next test concerns the target Cytochrome P450 2C19 (Homo sapiens, UniProt P33261). The experiment in a line: Cytochrome panel assay with activity outcomes. Panel member name: p450-cyp2c19 Compounds with AC50 equal or less than 10 uM are considered active. It is filed as functional. To be noted: read-out: AC50.
Another test addresses Cytochrome P450 2C9 (Homo sapiens, UniProt P11712).
For test [14], the target named is Lysosomal acid glucosylceramidase (Homo sapiens, UniProt P04062). The test can be described thus: Dose response cell-based high throughput screening assay to identify enhancers of beta-glucosidase activity. [Related pubchem assays: 784 ]. The class given is functional.
Sequence of Lysosomal acid glucosylceramidase (P04062 whole entry): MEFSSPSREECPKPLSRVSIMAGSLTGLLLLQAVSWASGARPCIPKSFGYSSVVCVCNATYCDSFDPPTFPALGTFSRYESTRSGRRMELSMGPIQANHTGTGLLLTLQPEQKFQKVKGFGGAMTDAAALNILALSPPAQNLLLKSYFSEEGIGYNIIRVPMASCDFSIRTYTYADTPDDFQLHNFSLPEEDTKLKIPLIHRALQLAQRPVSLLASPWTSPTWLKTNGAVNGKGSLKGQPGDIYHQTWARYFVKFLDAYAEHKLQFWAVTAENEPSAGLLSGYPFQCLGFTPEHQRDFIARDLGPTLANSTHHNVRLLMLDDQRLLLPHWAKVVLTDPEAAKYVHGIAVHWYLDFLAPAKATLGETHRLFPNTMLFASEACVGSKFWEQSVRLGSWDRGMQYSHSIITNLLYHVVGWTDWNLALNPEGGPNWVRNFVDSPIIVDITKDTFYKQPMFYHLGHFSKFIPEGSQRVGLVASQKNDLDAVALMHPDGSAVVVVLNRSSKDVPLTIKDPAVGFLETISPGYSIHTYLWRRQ
Test [15] deals with Peroxisome proliferator-activated receptor gamma/Nuclear receptor coactivator 1 (Homo sapiens, UniProt P37231). The experiment in a line: TR-FRET dose response biochemical High Throughput Screening assay for agonists of the steroid receptor coactivator 1 (SRC-1) recruitment by the peroxisome proliferator-activated receptor gamma (PPAR gamma): non-selective agonists. [Related pubchem assays (depositor defined):AID1300, AID1808, AID504735, AID631]. It is filed as protein assay. (In TR-FRET formats the signal depends on donor and acceptor labels being close together.)

For test [16], the target named is Peroxisome proliferator-activated receptor gamma/Nuclear receptor coactivator 3 (Homo sapiens, UniProt P37231). The test can be described thus: TR-FRET dose response biochemical High Throughput Screening assay for agonists of the steroid receptor coactivator 3 (SRC-3) recruitment by the peroxisome proliferator-activated receptor gamma (PPAR gamma): non-selective agonists. [Related pubchem assays: 1301 (Confirmation screen.), 1048 (Primary screen.)]. The class given is functional.

Test [17] concerns the target Peroxisome proliferator-activated receptor gamma/Nuclear receptor coactivator 2 (Homo sapiens, UniProt P37231). The experiment in a line: TR-FRET dose response biochemical High Throughput Screening assay for agonists of the steroid receptor coactivator 2 (SRC-2) recruitment by the peroxisome proliferator-activated receptor gamma (PPAR gamma): non-selective agonists. [Related pubchem assays: 1297, 1032 ]. It is filed as functional.

A further test has as its target Protein Tat (Human immunodeficiency virus type 1 group M subtype B (isolate HXB2)(HIV-1), UniProt P04608). It is filed as functional.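 Note: tat binding to TAR RNA read out by fluorescence polarization.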

The structures appear in SMILES notation. Calls of active or inactive are those of the source.

Broadly, the IC50 is the point on the concentration scale where inhibition reaches its midpoint. Usually EC50 stands for the concentration that produces a half-maximal response. As usually defined, the AC50 is the concentration giving half of the maximal activity seen.

Sequence of Peroxisome proliferator-activated receptor gamma/Nuclear receptor corepressor 2 (P37231 whole entry): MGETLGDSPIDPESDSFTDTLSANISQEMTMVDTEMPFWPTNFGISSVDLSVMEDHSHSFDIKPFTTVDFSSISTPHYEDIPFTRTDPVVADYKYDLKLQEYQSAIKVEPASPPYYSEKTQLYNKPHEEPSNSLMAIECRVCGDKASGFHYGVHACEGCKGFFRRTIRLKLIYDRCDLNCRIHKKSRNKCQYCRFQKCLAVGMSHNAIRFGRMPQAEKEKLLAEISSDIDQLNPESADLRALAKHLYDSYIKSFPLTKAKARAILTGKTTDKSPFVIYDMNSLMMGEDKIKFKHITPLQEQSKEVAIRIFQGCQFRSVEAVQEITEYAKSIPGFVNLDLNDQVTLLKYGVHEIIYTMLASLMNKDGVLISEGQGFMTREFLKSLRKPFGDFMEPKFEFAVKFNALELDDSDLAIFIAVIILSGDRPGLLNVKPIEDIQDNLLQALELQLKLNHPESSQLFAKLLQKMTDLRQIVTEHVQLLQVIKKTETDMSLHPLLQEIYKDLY
Sequence of Peroxisome proliferator-activated receptor gamma/Nuclear receptor corepressor 2 (Q9Y618 whole entry): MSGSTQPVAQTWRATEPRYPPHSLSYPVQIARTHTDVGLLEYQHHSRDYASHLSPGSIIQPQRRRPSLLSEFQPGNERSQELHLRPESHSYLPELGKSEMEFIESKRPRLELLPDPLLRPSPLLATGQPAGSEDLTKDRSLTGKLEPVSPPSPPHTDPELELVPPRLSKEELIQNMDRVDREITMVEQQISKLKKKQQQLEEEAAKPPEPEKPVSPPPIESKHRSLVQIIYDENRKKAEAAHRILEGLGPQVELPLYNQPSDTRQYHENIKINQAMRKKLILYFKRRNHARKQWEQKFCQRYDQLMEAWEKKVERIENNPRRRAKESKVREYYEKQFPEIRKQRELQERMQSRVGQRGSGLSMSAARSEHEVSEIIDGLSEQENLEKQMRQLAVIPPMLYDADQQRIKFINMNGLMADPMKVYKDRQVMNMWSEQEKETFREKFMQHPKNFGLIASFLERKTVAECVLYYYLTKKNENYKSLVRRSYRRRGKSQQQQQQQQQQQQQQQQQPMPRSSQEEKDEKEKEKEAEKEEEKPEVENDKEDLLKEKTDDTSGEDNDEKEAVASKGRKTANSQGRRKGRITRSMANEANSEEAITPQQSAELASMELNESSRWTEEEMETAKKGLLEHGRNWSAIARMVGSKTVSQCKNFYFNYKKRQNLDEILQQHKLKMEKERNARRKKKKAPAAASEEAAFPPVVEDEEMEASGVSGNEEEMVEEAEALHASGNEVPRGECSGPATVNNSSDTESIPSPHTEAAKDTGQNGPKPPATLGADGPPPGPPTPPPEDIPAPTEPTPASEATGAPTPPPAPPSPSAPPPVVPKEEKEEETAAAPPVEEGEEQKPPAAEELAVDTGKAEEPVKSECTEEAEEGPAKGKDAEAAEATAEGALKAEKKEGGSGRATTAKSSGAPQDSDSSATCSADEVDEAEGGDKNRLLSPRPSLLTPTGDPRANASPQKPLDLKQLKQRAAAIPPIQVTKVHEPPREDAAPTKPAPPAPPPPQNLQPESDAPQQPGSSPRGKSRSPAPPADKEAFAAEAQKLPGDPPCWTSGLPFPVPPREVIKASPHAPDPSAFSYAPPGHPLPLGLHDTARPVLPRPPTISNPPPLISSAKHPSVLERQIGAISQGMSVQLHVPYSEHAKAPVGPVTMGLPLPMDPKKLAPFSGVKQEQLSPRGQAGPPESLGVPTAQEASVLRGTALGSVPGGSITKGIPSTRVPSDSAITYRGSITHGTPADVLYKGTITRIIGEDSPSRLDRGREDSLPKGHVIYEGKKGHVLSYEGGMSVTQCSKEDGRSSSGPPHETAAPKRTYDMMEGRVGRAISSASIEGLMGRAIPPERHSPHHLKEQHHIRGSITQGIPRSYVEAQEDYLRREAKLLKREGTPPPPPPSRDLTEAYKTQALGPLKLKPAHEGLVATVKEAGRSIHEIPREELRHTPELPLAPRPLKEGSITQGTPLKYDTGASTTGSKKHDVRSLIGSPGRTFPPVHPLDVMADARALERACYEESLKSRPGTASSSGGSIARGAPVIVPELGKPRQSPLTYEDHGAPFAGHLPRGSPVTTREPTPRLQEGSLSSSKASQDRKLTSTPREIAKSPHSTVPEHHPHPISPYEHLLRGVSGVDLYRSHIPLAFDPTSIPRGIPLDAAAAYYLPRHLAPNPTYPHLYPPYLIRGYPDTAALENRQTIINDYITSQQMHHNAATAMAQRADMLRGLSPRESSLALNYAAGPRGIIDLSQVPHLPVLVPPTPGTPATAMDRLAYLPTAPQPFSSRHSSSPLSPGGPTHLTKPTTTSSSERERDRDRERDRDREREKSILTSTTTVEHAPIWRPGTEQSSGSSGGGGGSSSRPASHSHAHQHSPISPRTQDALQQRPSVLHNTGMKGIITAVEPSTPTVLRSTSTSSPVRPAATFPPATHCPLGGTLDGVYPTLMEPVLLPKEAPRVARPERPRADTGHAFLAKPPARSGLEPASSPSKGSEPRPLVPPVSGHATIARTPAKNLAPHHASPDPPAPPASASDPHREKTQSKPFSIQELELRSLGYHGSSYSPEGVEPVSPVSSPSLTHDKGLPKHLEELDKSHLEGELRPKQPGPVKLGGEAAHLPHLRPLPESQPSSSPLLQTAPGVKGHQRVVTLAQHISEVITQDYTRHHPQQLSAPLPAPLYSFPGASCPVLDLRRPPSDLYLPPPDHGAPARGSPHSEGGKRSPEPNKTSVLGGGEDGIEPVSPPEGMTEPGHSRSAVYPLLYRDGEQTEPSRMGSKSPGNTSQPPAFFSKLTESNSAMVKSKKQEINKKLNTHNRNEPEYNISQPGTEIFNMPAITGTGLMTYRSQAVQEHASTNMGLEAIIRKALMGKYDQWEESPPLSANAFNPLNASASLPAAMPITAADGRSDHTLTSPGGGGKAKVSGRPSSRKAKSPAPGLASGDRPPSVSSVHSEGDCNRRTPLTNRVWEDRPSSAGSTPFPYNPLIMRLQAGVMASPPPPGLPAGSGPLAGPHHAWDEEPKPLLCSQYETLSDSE
Sequence of Photoreceptor-specific nuclear receptor (Q9Y5X4 whole entry): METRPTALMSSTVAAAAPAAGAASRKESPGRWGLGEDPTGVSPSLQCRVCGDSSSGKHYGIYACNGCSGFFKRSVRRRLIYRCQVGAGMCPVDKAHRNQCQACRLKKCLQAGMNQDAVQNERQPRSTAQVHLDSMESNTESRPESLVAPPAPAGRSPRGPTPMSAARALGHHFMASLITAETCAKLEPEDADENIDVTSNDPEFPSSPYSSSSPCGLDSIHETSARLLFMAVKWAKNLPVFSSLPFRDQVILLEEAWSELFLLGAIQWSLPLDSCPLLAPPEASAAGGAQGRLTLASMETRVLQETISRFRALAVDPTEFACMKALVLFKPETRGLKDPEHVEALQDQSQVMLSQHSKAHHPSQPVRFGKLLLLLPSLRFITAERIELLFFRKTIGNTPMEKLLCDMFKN
Sequence of Cytochrome P450 2C19 (P33261 whole entry): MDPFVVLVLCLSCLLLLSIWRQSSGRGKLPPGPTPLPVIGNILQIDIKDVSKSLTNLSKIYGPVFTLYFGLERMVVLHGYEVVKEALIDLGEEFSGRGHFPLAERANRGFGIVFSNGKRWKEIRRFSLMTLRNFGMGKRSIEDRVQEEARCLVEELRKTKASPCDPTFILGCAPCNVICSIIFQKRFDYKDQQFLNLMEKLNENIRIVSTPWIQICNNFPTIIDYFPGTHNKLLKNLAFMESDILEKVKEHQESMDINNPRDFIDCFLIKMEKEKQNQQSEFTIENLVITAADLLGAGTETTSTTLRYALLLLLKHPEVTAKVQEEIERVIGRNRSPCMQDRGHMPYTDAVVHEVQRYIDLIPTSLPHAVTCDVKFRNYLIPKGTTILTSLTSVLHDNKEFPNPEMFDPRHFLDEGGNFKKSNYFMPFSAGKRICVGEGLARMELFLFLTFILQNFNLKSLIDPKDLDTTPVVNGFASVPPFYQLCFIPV
Sequence of Cytochrome P450 2C9 (P11712 whole entry): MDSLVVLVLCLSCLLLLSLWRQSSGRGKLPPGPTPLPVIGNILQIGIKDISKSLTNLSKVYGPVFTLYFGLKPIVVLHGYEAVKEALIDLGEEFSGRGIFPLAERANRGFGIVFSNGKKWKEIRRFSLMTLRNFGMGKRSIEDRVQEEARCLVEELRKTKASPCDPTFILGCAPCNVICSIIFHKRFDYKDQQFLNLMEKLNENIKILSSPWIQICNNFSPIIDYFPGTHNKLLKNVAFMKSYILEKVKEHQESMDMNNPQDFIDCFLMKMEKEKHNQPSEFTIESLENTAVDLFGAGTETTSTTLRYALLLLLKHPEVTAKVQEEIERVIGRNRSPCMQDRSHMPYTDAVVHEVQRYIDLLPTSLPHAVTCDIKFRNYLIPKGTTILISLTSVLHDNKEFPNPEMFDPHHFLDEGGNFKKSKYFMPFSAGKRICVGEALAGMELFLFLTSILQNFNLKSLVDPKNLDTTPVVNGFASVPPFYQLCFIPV
Sequence of Protein Tat (P04608 whole entry): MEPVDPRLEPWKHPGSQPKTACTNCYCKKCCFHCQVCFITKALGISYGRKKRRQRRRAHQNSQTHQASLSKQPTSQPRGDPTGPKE

Turning to `COc1cccc(CNC(=O)COC(=O)/C(C#N)=C/c2ccc(N(C)C)cc2)c1`, the IC50 is reported as > 39.8 µM (not active) in test [1] and 29.4 µM (not active) in [2].
In the case of `Nc1c(C(=O)NCc2ccco2)c2nc3ccccc3nc2n1CCN1CCCCC1`, the concentration for a half-maximal effect (EC50) in test [3] is > 120 µM (not active); in test [4], 26.9 µM (active); with H4, > 120 µM (not active); in [5], 12.6 µM (active); in [6], 2.43 µM (active); in test [7], 14.4 µM (active). Also, the EC50 in test [8] was 9.81 µM (active). Also, the IC50 in test [9] was 0.776 µM (active).
For the compound `O=C(/C(=N/Nc1cccc([N+](=O)[O-])c1)C(=O)C(F)(F)F)c1ccc(Br)cc1`, the EC50 with HEK293 was 12.2 µM (not active); in test [10] it was 7.63 µM (active); in test [11] it was 12.1 µM (not active); on Streptokinase A, 6.23 µM (active); in test [12], 10.6 µM (not active); with Streptococcus, 5.97 µM (active). Moreover, the half-maximal activity concentration (AC50) in the test on INS1 was 6.21 µM (active).
`Cc1ccc(C(=O)COC(=O)c2ccc3c(c2)C(=O)N(c2cccc4ncccc24)C3=O)cc1C`: the half-inhibitory concentration (IC50) in test [13] is 7.66 µM (active). Further, the results for the concentration at half-maximal activity (AC50) on Cytochrome P450 2C19 and at Cytochrome P450 2C9 were 15.8 µM (inconclusive) and 0.708 µM (inconclusive), respectively.
With `CC(C)OC(=O)CSc1nnc(-c2cccnc2)n1N`, the EC50 in test [14] is given as > 10 µM (not active).
With `O=C(O)CCc1ccc(-c2ccc(Br)cc2)o1`, the results for the IC50 (in test [1]; in test [2]; at Protein Tat) were > 39.8 µM (not active), 4.4 µM (active) and > 100 µM (active), respectively. For the same compound, the EC50 is > 79.4 µM (inactive) in test [15], > 79.4 µM (not active) in test [16] and 65.4 µM (not active) in test [17].

These data come from ChEMBL document CHEMBL1201862, “PubChem BioAssay data set” (2004).
